Article PMC2997942 (Molecular pharmaceutics, 2010)
Like-named read-outs stand apart in the source and are kept apart here.

What was measured:
OCTN2 [1] = molecular target: T1, OCTN2 (Homo sapiens, UniProt O76082); details: read-out: Ki or IC50; Caki-1 (human proximal tubule cell line); cited from earlier work
T1 sequence (O76082 1-557): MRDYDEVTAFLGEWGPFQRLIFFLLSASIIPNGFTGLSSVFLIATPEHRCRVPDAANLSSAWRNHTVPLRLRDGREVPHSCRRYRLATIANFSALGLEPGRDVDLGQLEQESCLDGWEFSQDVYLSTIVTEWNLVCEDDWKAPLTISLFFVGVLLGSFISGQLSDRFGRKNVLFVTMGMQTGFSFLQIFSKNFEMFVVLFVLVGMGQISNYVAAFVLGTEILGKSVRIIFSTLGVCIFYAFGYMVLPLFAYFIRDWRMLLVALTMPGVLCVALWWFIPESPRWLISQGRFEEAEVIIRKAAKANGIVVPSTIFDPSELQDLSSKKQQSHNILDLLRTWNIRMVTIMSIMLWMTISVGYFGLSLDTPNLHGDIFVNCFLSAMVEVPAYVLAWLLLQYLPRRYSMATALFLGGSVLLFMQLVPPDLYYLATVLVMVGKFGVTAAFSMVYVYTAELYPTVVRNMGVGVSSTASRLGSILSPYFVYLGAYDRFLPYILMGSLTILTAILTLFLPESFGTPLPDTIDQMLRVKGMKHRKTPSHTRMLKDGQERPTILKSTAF

[2] = clinical; ref Supplemental Table S6 references 1-19; cited from earlier work
OCTN2 [3] = molecular target: T1, OCTN2; details: hOCTN2-Transfected MDCKII Cells, cited from earlier work; for Ki: read-out: Ki or IC50
OCTN2 [4] = molecular target: T1, OCTN2; details: read-out: Ki or IC50; L6 cells overexpressing hOCTN2; cited from earlier work
human OCTN2 = details: read-out: Ki or IC50; Hela with human OCTN2; cited from earlier work
OCTN2 [5] = molecular target: T1, OCTN2; assay: Inhibition of L-carnitine uptake in stably transfected hOCTN2-MDCK cells; format: cell-based; details: Observed Ki (±SEM), test set, 10 min, competitive inhibition model
[6] = in vivo; cited from earlier work
rat OCTN2 [7] = details: L6 stable cell line with rat OCTN2; cited from earlier work
OCTN2 [8] = molecular target: T1, OCTN2; details: read-out: Ki or IC50; BeWo (human placental cell line); cited from earlier work
OCTN2 [9] = details: Mouse enterocyte; cited from earlier work
Rat kidney OCTN2 = details: read-out: Ki or IC50; Rat kidney OCTN2 reconstituted in liposomes; cited from earlier work
rat OCTN2 [10] = details: read-out: Ki or IC50; HEK stable cell line with rat OCTN2; cited from earlier work
[11] = tested on: Mouse myoblastic C2C12 cells; details: read-out: Ki or IC50; cited from earlier work

For `CCCC[N+]1(C)C2CC(OC(=O)C(CO)c3ccccc3)CC1C1OC12` (single isomer, unassigned; (-)) [(−)-N- butylscopolamine], the Ki (OCTN2 [1]) is listed as 1010 µM.

For `CCCC(=O)Nc1ccc(OCC(O)CNC(C)C)c(C(C)=O)c1` (stereo not drawn) [Acebutolol], the “Documented to cause rhabdomyolysis and/or carnitine deficiency in the literature” value (shortened to “Documented”) [2] is listed as “No” and the “Ki or IC50” value (OCTN2 [3]) is listed as “Not inhibitor”.

In the case of `C[C@H](CS)C(=O)N1CCC[C@H]1C(=O)O` [Captopril], the “Ki or IC50” value (OCTN2 [3]) is listed as “Not inhibitor”.

In the case of `Cc1nnc(SCC2=C(C(=O)O)N3C(=O)[C@@H](NC(=O)Cn4cnnn4)[C@H]3SC2)s1` [Cefazolin], the Ki (OCTN2 [4]) is listed as 6740 µM.

For `CO/N=C(\C(=O)N[C@@H]1C(=O)N2C(C(=O)[O-])=C(C[N+]3(C)CCCC3)CS[C@H]12)c1csc(N)n1` [Cefepime], the Ki (human OCTN2) is given as 1700 µM.

For `CO/N=C(\C(=O)N[C@@H]1C(=O)N2C(C(=O)[O-])=C(C[n+]3ccc(N)n3CCO)CS[C@H]12)c1csc(N)n1` [Cefoselis], the “Documented” value [2] is given as “Yes[3]” and the Ki (human OCTN2) is given as 6400 µM.

For `CO/N=C(\C(=O)N[C@@H]1C(=O)N2C(C(=O)O)=C(COC(N)=O)CS[C@H]12)c1ccco1` [Cefuroxime], the “Documented” value [2] is given as “Yes[9]” and the Ki (OCTN2 [4]) is given as 525 µM.

In the case of `O=C(Cc1cccs1)N[C@@H]1C(=O)N2C(C(=O)[O-])=C(C[n+]3ccccc3)CS[C@H]12` [Cephaloridine], the Ki (human OCTN2) is listed as 230 µM.

In the case of `O=C(O)COCCN1CCN(C(c2ccccc2)c2ccc(Cl)cc2)CC1` (stereo not drawn) [Cetirizine], the “Documented” value [2] is given as “No”.

In the case of `CN/C(=N/CCSCc1nc[nH]c1C)NC#N` [Cimetidine], the “Documented” value [2] is listed as “No”.

For `COc1cc(N)c(Cl)cc1C(=O)NC1CCN(CCCOc2ccc(F)cc2)CC1OC` (stereo not drawn) [Cisapride], the “Documented” value [2] is listed as “Yes[13]” and the Ki (OCTN2 [5]) is listed as 66.7 ± 9.8 µM.

In the case of `N.N.[Cl][Pt][Cl]` [Cisplatin], the “Documented” value [2] is given as “Yes[19]”, the Cmax [6] is given as 8130 nM and the “Ki or IC50” value (rat OCTN2 [7]) is given as “Not inhibitor”.

In the case of `COc1cccc2c1C(=O)c1c(O)c3c(c(O)c1C2=O)C[C@@](O)(C(C)=O)C[C@@H]3O[C@H]1C[C@H](N)[C@H](O)[C@H](C)O1` [Daunorubicin], the “Documented” value [2] is listed as “No” and the Ki (OCTN2 [5]) is listed as 502 ± 41 µM.

In the case of `C[C@H]1O[C@@H](O[C@H]2[C@@H](O)C[C@H](O[C@H]3[C@@H](O)C[C@H](O[C@H]4CC[C@@]5(C)[C@H](CC[C@@H]6[C@@H]5C[C@@H](O)[C@]5(C)[C@@H](C7=CC(=O)OC7)CC[C@]65O)C4)O[C@@H]3C)O[C@@H]2C)C[C@H](O)[C@@H]1O` [Digoxin], the “Ki or IC50” value (OCTN2 [3]) is given as “Not inhibitor”.

For `O=C1[C@H](CC[C@H](O)c2ccc(F)cc2)[C@@H](c2ccc(O)cc2)N1c1ccc(F)cc1` [Ezetimibe], the “Documented” value [2] is given as “Yes with statin[15]” and the Ki (OCTN2 [5]) is given as 29.3 ± 5 µM.

For `NC(N)=Nc1nc(CSCCC(N)=NS(N)(=O)=O)cs1` [Famotidine], the “Documented” value [2] is listed as “Yes[18]” and the Ki (OCTN2 [1]) is listed as 1920 µM.

In the case of `NS(=O)(=O)c1cc(C(=O)O)c(NCc2ccco2)cc1Cl` [Furosemide], the “Documented” value [2] is listed as “No”.

For `NCC1(CC(=O)O)CCCCC1` [Gabapentin], the “Documented” value [2] is given as “No”.

For `Cc1c(F)c(N2CCNC(C)C2)cc2c1c(=O)c(C(=O)O)cn2C1CC1` (stereo not drawn) [Grepafloxacin], the Ki (OCTN2 [8]) is given as 300 µM.

With `CCc1c2c(nc3ccc(OC(=O)N4CCC(N5CCCCC5)CC4)cc13)-c1cc3c(c(=O)n1C2)COC(=O)[C@]3(O)CC` [Irinotecan] the Ki (OCTN2 [5]) was 219 ± 18 µM.

In the case of `CCN(CC)CC(=O)Nc1c(C)cccc1C` [Lidocaine], the “Documented” value [2] is given as “No” and the “Ki or IC50” value (OCTN2 [9]) is given as “Not inhibitor”.

In the case of `CC12CC3CC(C)(C1)CC(N)(C3)C2` [Memantine], the “Documented” value [2] is given as “No” and the “Ki or IC50” value (OCTN2 [3]) is given as “Not inhibitor”.

For `CN(C)C(=N)N=C(N)N` [Metformin], the “Documented” value [2] is given as “Yes[14]” and the Ki (OCTN2 [1]) is given as 4960 µM.

In the case of `COCCc1ccc(OCC(O)CNC(C)C)cc1` (stereo not drawn) [Metoprolol], the “Ki or IC50” value (OCTN2 [3]) is given as “Not inhibitor”.

In the case of `C[N+](C)(C)NCCC(=O)[O-]` [Mildronate], the “Documented” value [2] is given as “No” and the Ki (OCTN2 [3]) is given as 26 µM.

For `CNC(=C[N+](=O)[O-])NCCSCc1csc(CN(C)C)n1` [Nizatidine], the “Documented” value [2] is listed as “No” and the Ki (OCTN2 [5]) is listed as 183 ± 17 µM.

For `COc1ccc2[nH]c([S+]([O-])Cc3ncc(C)c(OC)c3C)nc2c1` (stereo not drawn) [Omeprazole], the “Documented” value [2] is given as “Yes[6]” and the Ki (Rat kidney OCTN2) is given as 14.6 µM.

In the case of `O=C1[O][Pt]2([NH][C@@H]3CCCC[C@H]3[NH]2)[O]C1=O` [Oxaliplatin], the “Documented” value [2] is listed as “No” and the “Ki or IC50” value (rat OCTN2 [7]) is listed as “Not inhibitor”.

In the case of `OC1(c2ccc(Cl)c(C(F)(F)F)c2)CCN(CCCC(c2ccc(F)cc2)c2ccc(F)cc2)CC1` [Penfluridol], the “Documented” value [2] is listed as “No” and the Ki (OCTN2 [5]) is listed as 26.5 ± 4.1 µM.

For `CCCN(CCC)S(=O)(=O)c1ccc(C(=O)O)cc1` [Probenecid], the “Documented” value [2] is listed as “No” and the “Ki or IC50” value (OCTN2 [9]) is listed as “Not inhibitor”.

In the case of `COC(=O)[C@H]1[C@H]2C[C@@H]3c4[nH]c5cc(OC)ccc5c4CCN3C[C@H]2C[C@@H](OC(=O)c2cc(OC)c(OC)c(OC)c2)[C@@H]1OC` [Reserpine], the “Documented” value [2] is given as “No” and the Ki (OCTN2 [5]) is given as 32.2 ± 4.8 µM.

For `Cc1nc2n(c(=O)c1CCN1CCC(c3noc4cc(F)ccc34)CC1)CCCC2` [Risperidone], the “Documented” value [2] is listed as “Yes with statin[17]”.

For `CC(C)c1nc(CN(C)C(=O)N[C@H](C(=O)N[C@@H](Cc2ccccc2)C[C@H](O)[C@H](Cc2ccccc2)NC(=O)OCc2cncs2)C(C)C)cs1` [Ritonavir], the “Documented” value [2] is listed as “Yes with statin[5]”.

In the case of `CC[C@H]1OC(=O)[C@H](C)[C@@H](O[C@H]2C[C@@](C)(OC)[C@@H](O)[C@H](C)O2)[C@H](C)[C@@H](O[C@@H]2O[C@H](C)C[C@H](N(C)C)[C@H]2O)[C@](C)(O)C[C@@H](C)/C(=N\OCOCCOC)[C@H](C)[C@@H](O)[C@]1(C)O` [Roxithromycin], the “Documented” value [2] is given as “Yes with statin[10]” and the Ki (OCTN2 [5]) is given as 333 ± 25 µM.

In the case of `CC(=O)S[C@@H]1CC2=CC(=O)CC[C@]2(C)[C@H]2CC[C@@]3(C)[C@@H](CC[C@@]34CCC(=O)O4)[C@H]12` [Spironolactone], the “Documented” value [2] is listed as “No” and the Ki (OCTN2 [3]) is listed as 26 µM.

In the case of `Nc1c2c(nc3ccccc13)CCCC2` [Tacrine], the Ki (rat OCTN2 [10]) is given as 500 µM and the Cmax [6] is given as 134 nM.

In the case of `CCCC(CCC)C(=O)O` [Valproic acid], the “Documented” value [2] is listed as “Yes[1]”.

In the case of `CC[C@]1(O)C[C@H]2CN(CCc3c([nH]c4ccccc34)[C@@](C(=O)OC)(c3cc4c(cc3OC)N(C=O)[C@H]3[C@@](O)(C(=O)OC)[C@H](OC(C)=O)[C@]5(CC)C=CCN6CC[C@]43[C@@H]65)C2)C1` [Vincristine], the “Documented” value [2] is given as “Yes[8]”.

For `CCC1=C[C@@H]2CN(C1)Cc1c([nH]c3ccccc13)[C@@](C(=O)OC)(c1cc3c(cc1OC)N(C)[C@H]1[C@@](O)(C(=O)OC)[C@H](OC(C)=O)[C@]4(CC)C=CCN5CC[C@]31[C@@H]54)C2` [Vinorelbine], the “Documented” value [2] is given as “No” and the Ki (OCTN2 [5]) is given as 26.8 ± 1.5 µM.

For `Cc1cn([C@H]2C[C@H](N=[N+]=[N-])[C@@H](CO)O2)c(=O)[nH]c1=O` [Zidovudine], the Ki [11] is given as 6 µM.

In the case of Ciclotropium, the “Documented” value [2] is given as “No”, the Ki (OCTN2 [1]) is given as 30 µM and the Cmax [6] is given as 20.6 nM.
